Data as given in patent US20150307938A1, “METHOD TO IDENTIFY A NOVEL CLASS OF IMMUNOLOGIC ADJUVANTS” (Lancell, L.L.C., priority 2011, published 2015).
Marks after values point to notes of the source that are not given here.

System: full thickness skin
Test: Whole genome array of skin gene expression after topical DBP (time course)
Type: in vivo, C57BL/6J mice
Procedure: Mice: C57BL/6J female mice obtained from The Jackson Laboratory were used between 8 and 12 weeks of age.
Treatment: Mice were untreated or treated topically on the dorsal side of each ear with […] of dibutylphthalate (DBP). At the designated time points after treatment, the animals were euthanized and the ears washed with 70% isopropanol. Full thickness skin was obtained from the dorsal side of both ears and placed immediately in liquid nitrogen. The time between euthanasia and placement of both skin samples in liquid nitrogen was less than 1 minute. Each sample for RNA extraction contained two dorsal ear skin samples obtained from a single mouse both of whose ears received the same treatment.
RNA Extraction: While in liquid nitrogen, the skin was pulverized with a motorized mortar and pestle (CryoGrinder), transferred by inversion of the mortar directly into 1.5 ml cryogenic vials (Nalgene) and stored in liquid nitrogen until RNA extraction. Total RNA from both ears was extracted by homogenization (Pro200) in TRIzol Reagent (Invitrogen) with 7.5 μg of RNase-free glycogen added to the mixture, according to the manufacturer's directions. The RNA was purified on a solid phase RNeasy MinElute Cleanup column (Qiagen) and eluted with 17 μL of RNase-free water. The samples were stored at −20° C. until use.
Quantification of RNA: RNA yields were quantified by UV absorption using a NanoDrop NG-1000 spectrophotometer, where 1 AU 260 equals 40 μg RNA/ml. Purity was estimated by the 260 and 280 nm absorbance ratio; values between 1.7 and 2.1 were considered acceptable.
Assessment of RNA Quality: The quality of sample RNA was assessed using a RNA 6000 LABCHIP Kit on an Agilent 2100 Bioanalyzer. The Bioanalyzer determines the integrity/purity of the RNA samples and permits the screening of total and mRNA sample degradation and ribosomal RNA contamination. An RNA 6000 ladder was also loaded on a specified well and used as a reference for data analysis and a built-in quality control measure. The quality and integrity of the RNA was determined through visual inspection of each electropherogram. In general, only samples with a RIN (RNA integrity number) of 7 or greater, as determined by the Bioanalyzer, were used for gene arrays. This quality control analysis was repeated following the labeling procedure to ensure that the probes were efficiently labeled and had the correct size before hybridization to the chips. All samples that were run on genome wide arrays were obtained as independent duplicates from two individual mice.
Microarray Data Interpretation: Gene expression was compared between untreated and treated total RNA samples. “Transition” data, which represent the change in expression level for a given gene, are presented as a “weighted difference.” Changes in gene expression level were considered to be significant when the adjusted p values were less than […]. The “gene expression signature” arbitrarily includes only those genes that were transcribed with a weighted increase of 2.0 or greater, which was sustained over the subsequent time points tested.
The weighted difference is a metric that takes into account both the variability between different time-points and the variability between replicates at the same time-point. The calculations are performed for each time-point transition, i.e., 30 minutes vs. 1 hour, 1 hour vs. 2 hours, etc. There are two steps to the calculation: the calculation of a modified Euclidean difference between the two time-points, and the calculation of the Euclidean difference between the replicates within each time-point. The first measure is an unweighted difference, while the final metric given in the spreadsheet “weights” this difference by taking into account the second measure.
In a Euclidean difference calculation, each data point is considered as a vector in a multi-dimensional space, and the actual straight-line distance between the data points is calculated. […]

How did the “Ier3 Change in Gene Expression (Weighted Difference)” value (30 min to 1 hr Transition) turn out when `CCCCOC(=O)c1ccccc1C(=O)OCCCC` [DBP, dibutylphthalate] was run?
Its value is 7.145.

What about the “Il10ra Change in Gene Expression (Weighted Difference)” value (30 min to 1 hr Transition) of the same compound?
Its value is 0.6152.

And the “Jun Change in Gene Expression (Weighted Difference)” value (30 min to 1 hr Transition)?
Its value is 0.7234.

What about the “Junb Change in Gene Expression (Weighted Difference)” value (30 min to 1 hr Transition) of the same compound?
Its value is 2.771.

And the “LOC100046066 Change in Gene Expression (Weighted Difference)” value (30 min to 1 hr Transition)?
Its value is 2.144.

And the “Madcam1 Change in Gene Expression (Weighted Difference)” value (30 min to 1 hr Transition)?
The value was 0.046.

And the “Med17 Change in Gene Expression (Weighted Difference)” value (30 min to 1 hr Transition)?
Its value is 0.06201.

What about the “Mkks Change in Gene Expression (Weighted Difference)” value (30 min to 1 hr Transition) of the same compound?
The value was 0.2811.

And the “Mndal Change in Gene Expression (Weighted Difference)” value (30 min to 1 hr Transition)?
Its value is 0.3272.

What about the “Myc Change in Gene Expression (Weighted Difference)” value (30 min to 1 hr Transition) of the same compound?
The value was 1.895.

What about the “N6amt2 Change in Gene Expression (Weighted Difference)” value (30 min to 1 hr Transition) of the same compound?
Its value is 0.0833.

And the “Nr4a1 Change in Gene Expression (Weighted Difference)” value (30 min to 1 hr Transition)?
Its value is 1.556.

And the “P2ry1 Change in Gene Expression (Weighted Difference)” value (30 min to 1 hr Transition)?
Its value is 1.47.

And the “Prf1 Change in Gene Expression (Weighted Difference)” value (30 min to 1 hr Transition)?
The value was 0.5182.

What about the “Sik1 Change in Gene Expression (Weighted Difference)” value (30 min to 1 hr Transition) of the same compound?
Its value is 0.7241.

What about the “Slc39a8 Change in Gene Expression (Weighted Difference)” value (30 min to 1 hr Transition) of the same compound?
Its value is 2.304.

What about the “Tmed3 Change in Gene Expression (Weighted Difference)” value (30 min to 1 hr Transition) of the same compound?
Its value is −0.1953.

What about the “Zfp36 Change in Gene Expression (Weighted Difference)” value (30 min to 1 hr Transition) of the same compound?
Its value is 2.8.

And the “% Shared (DBP-induced genes also TLR-induced)” value (1 hr)?
Its value is 69%.

What about the “DBP Unique genes, number” value (1 hr) of the same compound?
The value was 26.

And the “DBP-Induced genes (≧2x Increased Expression), number” value (1 hr)?
The value was 83.

What about the “TLR-Induced among DBP-induced genes, number” value (1 hr) of the same compound?
The value was 57^#.

What about the “Acot5 Change in Gene Expression (Weighted Difference)” value (1 hr to 2 hr Transition) of the same compound?
Its value is 12.15.

And the “Akr1c18 Change in Gene Expression (Weighted Difference)” value (1 hr to 2 hr Transition)?
The value was −0.2471.

And the “Atp2c2 Change in Gene Expression (Weighted Difference)” value (1 hr to 2 hr Transition)?
The value was 0.331.

And the “Btg2 Change in Gene Expression (Weighted Difference)” value (1 hr to 2 hr Transition)?
The value was −0.01005.

And the “Ccr4 Change in Gene Expression (Weighted Difference)” value (1 hr to 2 hr Transition)?
The value was −0.03096.

What about the “Cdh10 Change in Gene Expression (Weighted Difference)” value (1 hr to 2 hr Transition) of the same compound?
The value was −0.1519.

What about the “Cish Change in Gene Expression (Weighted Difference)” value (1 hr to 2 hr Transition) of the same compound?
Its value is 0.9334.

What about the “Cox17 Change in Gene Expression (Weighted Difference)” value (1 hr to 2 hr Transition) of the same compound?
The value was 0.1604.

And the “Cysltr1 Change in Gene Expression (Weighted Difference)” value (1 hr to 2 hr Transition)?
Its value is −1.794.

And the “Egr1 Change in Gene Expression (Weighted Difference)” value (1 hr to 2 hr Transition)?
Its value is −0.2127.

And the “Egr2 Change in Gene Expression (Weighted Difference)” value (1 hr to 2 hr Transition)?
The value was −0.1057.

And the “Frk Change in Gene Expression (Weighted Difference)” value (1 hr to 2 hr Transition)?
The value was −0.2672.

What about the “Gbp8 Change in Gene Expression (Weighted Difference)” value (1 hr to 2 hr Transition) of the same compound?
Its value is −1.039.

And the “Gem Change in Gene Expression (Weighted Difference)” value (1 hr to 2 hr Transition)?
Its value is 0.6484.

What about the “Gimap7 Change in Gene Expression (Weighted Difference)” value (1 hr to 2 hr Transition) of the same compound?
The value was 0.1331.

And the “Ier3 Change in Gene Expression (Weighted Difference)” value (1 hr to 2 hr Transition)?
Its value is 0.7786.

And the “Il10ra Change in Gene Expression (Weighted Difference)” value (1 hr to 2 hr Transition)?
The value was 0.1326.

And the “Jun Change in Gene Expression (Weighted Difference)” value (1 hr to 2 hr Transition)?
Its value is −0.001533.

What about the “Junb Change in Gene Expression (Weighted Difference)” value (1 hr to 2 hr Transition) of the same compound?
The value was −0.0754.

And the “LOC100046066 Change in Gene Expression (Weighted Difference)” value (1 hr to 2 hr Transition)?
Its value is −0.8577.

What about the “Madcam1 Change in Gene Expression (Weighted Difference)” value (1 hr to 2 hr Transition) of the same compound?
The value was −0.04597.

What about the “Med17 Change in Gene Expression (Weighted Difference)” value (1 hr to 2 hr Transition) of the same compound?
Its value is 0.1073.

And the “Mkks Change in Gene Expression (Weighted Difference)” value (1 hr to 2 hr Transition)?
The value was −0.1657.

And the “Mndal Change in Gene Expression (Weighted Difference)” value (1 hr to 2 hr Transition)?
Its value is 0.5733.

And the “Myc Change in Gene Expression (Weighted Difference)” value (1 hr to 2 hr Transition)?
The value was −0.01449.

What about the “N6amt2 Change in Gene Expression (Weighted Difference)” value (1 hr to 2 hr Transition) of the same compound?
The value was −0.07791.

And the “Nr4a1 Change in Gene Expression (Weighted Difference)” value (1 hr to 2 hr Transition)?
The value was −0.4734.

And the “P2ry1 Change in Gene Expression (Weighted Difference)” value (1 hr to 2 hr Transition)?
Its value is −0.5171.

And the “Prf1 Change in Gene Expression (Weighted Difference)” value (1 hr to 2 hr Transition)?
Its value is −0.3117.

What about the “Sik1 Change in Gene Expression (Weighted Difference)” value (1 hr to 2 hr Transition) of the same compound?
The value was 0.007769.

What about the “Slc39a8 Change in Gene Expression (Weighted Difference)” value (1 hr to 2 hr Transition) of the same compound?
Its value is 1.188.

And the “Tmed3 Change in Gene Expression (Weighted Difference)” value (1 hr to 2 hr Transition)?
Its value is −0.2575.

And the “Zfp36 Change in Gene Expression (Weighted Difference)” value (1 hr to 2 hr Transition)?
The value was 0.1025.

What about the “% Shared (DBP-induced genes also TLR-induced)” value (2 hr) of the same compound?
The value was 63%.
